The source of these data is ChEMBL document CHEMBL1133712, “Monocyclic L-nucleosides with type 1 cytokine-inducing activity” (2000).

The nature of the first assay: Compounds was tested for the effect of L-nucleosides of ribavirin on SEB (staphylococcal enterotoxin B)-stimulated T-cell expression of the type 1 cytokine IFN-gamma. It is filed as functional, Homo sapiens. The arrangement: concentration or dose not given beside the values.
The molecule `NC(=O)c1ncn([C@@H]2C[C@@H](O)[C@H](CO)O2)n1` returned a Control of 110%.

For `NC(=O)c1ncn([C@H]2O[C@@H](CO)[C@H](O)[C@@H]2O)n1`, the Control amounted to 122%.

As to `Cl.N=C(N)c1ncn([C@H]2O[C@@H](CO)[C@H](O)[C@@H]2O)n1`, the Control amounted to 128%.

`NC(=O)c1ncn([C@H]2O[C@@H](CO)C[C@@H]2O)n1` yielded a Control of 114%.

For `NC(=O)c1ncn([C@H]2O[C@@H](CO)[C@@H](O)[C@@H]2O)n1`, the Control came to 119%.

In the case of `NC(=O)c1ncn([C@@H]2O[C@H](CO)[C@@H](O)[C@H]2O)n1` [RIBAVIRIN], the Control was 131%.

A short description of a further assay: Compounds was tested for the effect of L-nucleosides of ribavirin on SEB (staphylococcal enterotoxin B)-stimulated T-cell expression of the type 1 cytokine TNF-alpha. The class given is functional, Homo sapiens. The arrangement: concentration or dose not given beside the values.
`NC(=O)c1ncn([C@@H]2C[C@@H](O)[C@H](CO)O2)n1` showed a Control of 119%.

In turn, `NC(=O)c1ncn([C@H]2O[C@@H](CO)[C@H](O)[C@@H]2O)n1` displayed a Control of 144%.

For `Cl.N=C(N)c1ncn([C@H]2O[C@@H](CO)[C@H](O)[C@@H]2O)n1`, the Control was 120%.

`NC(=O)c1ncn([C@H]2O[C@@H](CO)C[C@@H]2O)n1` came in with a Control of 109%.

With `NC(=O)c1ncn([C@H]2O[C@@H](CO)[C@@H](O)[C@@H]2O)n1`, the Control is 132%.

The molecule `NC(=O)c1ncn([C@@H]2O[C@H](CO)[C@@H](O)[C@H]2O)n1` [RIBAVIRIN] gave a Control of 124%.

The next assay in a line: Compounds was tested for the effect of L-nucleosides of ribavirin on SEB (staphylococcal enterotoxin B)-stimulated T-cell expression of the type 1 cytokine IL-2. It is filed as functional, Homo sapiens. On the set-up: concentration or dose not given beside the values.
Molecule `NC(=O)c1ncn([C@@H]2C[C@@H](O)[C@H](CO)O2)n1` displayed a Control of 108%.

Take `NC(=O)c1ncn([C@H]2O[C@@H](CO)[C@H](O)[C@@H]2O)n1`: the Control amounted to 131%.

`Cl.N=C(N)c1ncn([C@H]2O[C@@H](CO)[C@H](O)[C@@H]2O)n1` displayed a Control of 133%.

Consider `NC(=O)c1ncn([C@H]2O[C@@H](CO)C[C@@H]2O)n1`, for which the Control is reported as 115%.

In the case of `NC(=O)c1ncn([C@H]2O[C@@H](CO)[C@@H](O)[C@@H]2O)n1`, the Control turned out to be 100%.

The molecule `NC(=O)c1ncn([C@@H]2O[C@H](CO)[C@@H](O)[C@H]2O)n1` [RIBAVIRIN] displayed a Control of 143%.
